A value given as a limit tells only on which side of the number the result lay.

For this test, the target named is T1, human PAH with the R408W mutation (Homo sapiens, UniProt P00439, R408W).
T1 construct: expressed in transfected cells
T1 sequence (P00439 1-452 R408W): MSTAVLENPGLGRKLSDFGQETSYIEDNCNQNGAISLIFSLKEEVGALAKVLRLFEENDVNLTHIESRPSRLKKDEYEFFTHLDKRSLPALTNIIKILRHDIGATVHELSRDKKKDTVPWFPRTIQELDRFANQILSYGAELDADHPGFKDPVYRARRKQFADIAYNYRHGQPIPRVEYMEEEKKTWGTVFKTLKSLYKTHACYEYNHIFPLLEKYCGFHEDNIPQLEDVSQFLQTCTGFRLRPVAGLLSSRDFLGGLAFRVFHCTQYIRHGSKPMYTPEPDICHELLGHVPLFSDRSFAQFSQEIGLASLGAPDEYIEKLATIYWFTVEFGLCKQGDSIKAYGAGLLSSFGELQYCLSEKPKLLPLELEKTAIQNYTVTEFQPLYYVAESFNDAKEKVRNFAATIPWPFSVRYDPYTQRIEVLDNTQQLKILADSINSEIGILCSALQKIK
Put plainly: Cell Based Phenylalanine Flux Assay.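 Note: after compound treatment, cells received sepiapterin plus isotope-labelled Phenylalanine for 4 hours, then labelled Tyrosine in the medium was quantified, 10-point 2-fold dilution series run in duplicate.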 Particulars: A375 cells expressing human R408W PAH; 24 hrs compound incubation; 13C-Tyrosine by LC-MS; average where tested multiple times; read-out: AC50.
As usually defined, the AC50 is the midpoint of the concentration-response curve, whichever way the signal moves. For the compound `Fc1cccn2nc([C@@H]3c4nc[nH]c4CCN3c3nnc(C(F)F)o3)cc12` [Example 1737, (S)-2-(difluoromethyl)-5-(4-(4-fluoropyrazolo[1,5-a]pyridin-2-yl)-6,7-dihydro-1H-imidazo[4,5-c]pyridin-5(4H)-yl)-1,3,4-oxadiazole], the half-maximal activity concentration (AC50) was in the range of 500 to 1000 nM.

Turning to `FC(F)c1nnc(N2CCc3[nH]cnc3[C@H]2c2cc3c(Cl)cccn3n2)o1` [Example 1739, (S)-2-(4-(4-chloropyrazolo[1,5-a]pyridin-2-yl)-6,7-dihydro-1H-imidazo[4,5-c]pyridin-5(4H)-yl)-5-(difluoromethyl)-1,3,4-oxadiazole], the AC50 was below 500 nM.

In the case of `Cc1cccc2cc([C@H]3c4nc[nH]c4CCN3c3nnc(C(F)F)o3)nn12` [Example 1740, (R)-2-(difluoromethyl)-5-(4-(7-methylpyrazolo[1,5-a]pyridin-2-yl)-6,7-dihydro-1H-imidazo[4,5-c]pyridin-5(4H)-yl)-1,3,4-oxadiazole], the AC50 was above 5000 nM.

On to `Cc1cccc2cc([C@@H]3c4nc[nH]c4CCN3c3nnc(C(F)F)o3)nn12` [Example 1741, (S)-2-(difluoromethyl)-5-(4-(7-methylpyrazolo[1,5-a]pyridin-2-yl)-6,7-dihydro-1H-imidazo[4,5-c]pyridin-5(4H)-yl)-1,3,4-oxadiazole], for which the AC50 lay within 500 to 1000 nM.

With `O=C(c1cnn2cc(C3CC3)ccc12)N1CCc2[nH]cnc2[C@H]1c1cc2c(C(F)F)cccn2n1` [Example 1742, (S)-(6-cyclopropylpyrazolo[1,5-a]pyridin-3-yl)(4-(4-(difluoromethyl)pyrazolo[1,5-a]pyridin-2-yl)-6,7-dihydro-1H-imidazo[4,5-c]pyridin-5(4H)-yl)methanone], the concentration at half-maximal activity (AC50) is below 500 nM.

Turning to `O=C(c1cnn2cc(C3CC3)ccc12)N1CCc2[nH]cnc2[C@@H]1c1cc2c(C(F)F)cccn2n1` [Example 1743, (R)-(6-cyclopropylpyrazolo[1,5-a]pyridin-3-yl)(4-(4-(difluoromethyl)pyrazolo[1,5-a]pyridin-2-yl)-6,7-dihydro-1H-imidazo[4,5-c]pyridin-5(4H)-yl)methanone], the AC50 was in the range of 1000 to 5000 nM.

Consider `O=C(c1cnn2cc(C3CC3)ccc12)N1CCc2[nH]cnc2[C@H]1c1cc2cccc(Cl)n2n1` [Example 1744, (S)-(4-(7-chloropyrazolo[1,5-a]pyridin-2-yl)-6,7-dihydro-1H-imidazo[4,5-c]pyridin-5(4H)-yl)(6-cyclopropylpyrazolo[1,5-a]pyridin-3-yl)methanone], for which the AC50 fell in the range of 1000 to 5000 nM.

In the case of `O=C(c1cnn2cc(C3CC3)ccc12)N1CCc2[nH]cnc2[C@@H]1c1cc2cccc(Cl)n2n1` [Example 1745, (R)-(4-(7-chloropyrazolo[1,5-a]pyridin-2-yl)-6,7-dihydro-1H-imidazo[4,5-c]pyridin-5(4H)-yl)(6-cyclopropylpyrazolo[1,5-a]pyridin-3-yl)methanone], the concentration at half-maximal activity (AC50) is above 5000 nM.

With `CN(C)c1ccc2c(C(=O)N3CCc4[nH]cnc4[C@@H]3c3cc4c(C(F)(F)F)cccn4n3)cnn2c1` [Example 1747, (R)-(6-(dimethylamino)pyrazolo[1,5-a]pyridin-3-yl)(4-(4-(trifluoromethyl)pyrazolo[1,5-a]pyridin-2-yl)-6,7-dihydro-1H-imidazo[4,5-c]pyridin-5(4H)-yl)methanone], the half-maximal activity concentration (AC50) was above 5000 nM.

On to `FC(F)(F)c1cnc(N2CCc3[nH]cnc3[C@H]2c2cc3ccccn3n2)nc1` [Example 1752, (S)-4-(pyrazolo[1,5-a]pyridin-2-yl)-5-(5-(trifluoromethyl)pyrimidin-2-yl)-4,5,6,7-tetrahydro-1H-imidazo[4,5-c]pyridine], for which the AC50 was below 500 nM.

On to `Cc1cccn2nc([C@@H]3c4nc[nH]c4CCN3c3ncc(C(F)(F)F)cn3)cc12` [Example 1754, (S)-4-(4-methylpyrazolo[1,5-a]pyridin-2-yl)-5-(5-(trifluoromethyl)pyrimidin-2-yl)-4,5,6,7-tetrahydro-1H-imidazo[4,5-c]pyridine], for which the AC50 was below 500 nM.

These data come from patent US20230365592A1 (Agios Pharmaceuticals, Inc., priority 2022, published 2023).
